Data published in patent US20170239239A1, “Method for Inducing a Sustained Immune Response” (Immune Therapeutics Inc., priority 2016, published 2017).

Assays:
[1] = system: asymptomatic HIV+ adults; experiment: Single blind 90 day randomized bridging clinical trial in Nigeria; format: in vivo, human
Procedure: The differences in CD4 count, CD4%, hemoglobin, viral load, interferon alpha, and standard chemistry panel were measured between treated versus non-treated groups four times throughout the study. […] When used alone, it appears to slow and/or stop the progression of the disease.

[2] = system: HIV/AIDS patients; experiment: Naltrexone as adjunct therapy, 50 HIV patients in Africa; format: in vivo, human
Description: Naltrexone as an adjunct therapy with HIV/AIDS patients. […] HIV disease is associated with a new constellation of problems, generally referred to as “non-AIDS morbidity”, and, in the popular press, “premature aging. […] at risk for developing a number of non-AIDS conditions, including cardiovascular disease, cancer, kidney disease, liver disease, osteopenia/osteoporosis and neurocognitive disease (collectively referred to as “serious non-AIDS events”). Malignancies associated with infections such as human papilloma virus (including uro-genital and head and neck cancers), Epstein Barr Virus (including Hodgkins disease), and hepatitis B and C (hepatocellular carcinoma), are also relatively common in HIV-infected adult. […] Subtle elevations in many of these biomarkers are associated with dramatic increases in the risk of subsequent disease, including all-cause mortality For example, as compared to a well-matched uninfected population, treated HIV-infected adults have approximately 50 to 100% higher levels of the inflammatory cytokine interleukin-6 (IL-6)^(32). […] Risk factors for impaired CD4 T-cell recovery include low pre-treatment CD4+ T cell count nadir, co-infection with other viruses such as hepatitis C, older age, and perhaps viral factors(24). Suboptimal treatment-mediated CD4+ T cell outcomes likely have clinical consequences given the consistent association between CD4+ T cell counts during ART and elevated risk of many co-morbidities (e.g., heart disease, cancer) and all-cause mortality. Chronic signaling through the interferon-alpha pathway may contribute to this inflammatory disease^(32), as can the impact of virus production/entry (without productive infection) on pyroptosis, which is a highly inflammatory process that can cause death of affected and neighboring cells. The frequency of activated T cells remains elevated during chronic treatment and appears related to size of the HIV reservoir and pace of immune reconstitution although the effect of this marker in predicting overall morbidity and mortality is not as strong as some of the innate immune system inflammatory markers^(37).
We believe that long term monitoring of patients will show a reduction in non-AIDS morbidity.

[3] = system: pleural mesothelioma; experiment: Case report, stage 4 pleural mesothelioma; format: in vivo, human; details: person; 4.5 mg nightly, no chemotherapy; February 2009 and 2010
Procedure: Person diagnosed with stage 4 pleural mesothelioma in December of 2008 and patients after consult with two other doctors it was determined due to the state of the diseases and other health issues to watch the tumors and not do chemotherapy. Prognosis was 6 to 12 months. Patient started 4.5 mg nightly and received on other treatment but did change diet.

[4] = system: autism; experiment: Randomized, double blind, placebo-controlled study in autism; format: in vivo, human
[5] = system: lymphocyte subsets of autistic children; experiment: Behavioral and immunological assessment in autism, double-blind naltrexone; design: species or system human; details: in vivo
Description: Opioid-immune interactions in autism: behavioral and immunological assessment during a double-blind treatment with naltrexone.
Changes in natural killer cells and activity were inversely related to plasma beta-endorphin levels.

[6] = system: Crohn's disease; experiment: Randomized placebo-controlled study in 40 subjects with active Crohn's disease; format: in vivo, human
Description: Forty subjects with active Crohn's disease were enrolled in the study. […] Providers and patients were masked to treatment assignment. The primary outcome was the proportion of subjects in each arm with a 70-point decline in Crohn's Disease Activity Index score (CDAI). The secondary outcome included mucosal healing based upon colonoscopy appearance and histology.

[7] = system: Shingles; experiment: Case report, shingles; format: in vivo, human; details: person; 4.5 mg nightly since 2013
Procedure: A person diagnosed with Shingles in 2010 over 18 months had 8 major outbreaks, and was treated with acyclovir, and valacyclovir, as the outbreaks continued they prescribed Lidocaine patches and pain medications.

[8] = system: MS patients; experiment: Retrospective chart review of MS patients receiving LDN; format: in vivo, human
Description: This study investigated the safety, tolerability, and benefits (fatigue, reduction) of LDN in patients with MS. It reviewed the number of patients who stopped taking LDN and if there were specific reasons for stopping the LDN. The frequency and variety of side effects that were specific to LDN use are reported. […] 1, 2005 and May 31, 2012. There were 215 MS patients having exposure to LDN during the time of this study. […] In addition to the assessment we review Brain MRIs and Spinal Cord MRIs that were obtained as part of the clinical status of the patient and standard of care.
It reviewed the number of patients who stopped taking IMMEDIATE RELEASE NALTREXONE (LDN) and if there were specific reasons for stopping the IMMEDIATE RELEASE NALTREXONE (LDN). […] 1, 2005 and May 31, 2012. […] In addition to the assessment we review Brain Mills and Spinal Cord MRIs that were obtained as part of the clinical status of the patient and standard of care.

[9] = normal volunteers, HIV positive, multiple sclerosis, autism, fibromyalgia, diabetes, and cancer patients; cited from earlier work
[10] = system: patients with AIDS; details: cited from earlier work
[11] = 3.0 mg daily at bedtime, 12 weeks, vs placebo

In the case of O=C1CC[C@@]2(O)[C@H]3Cc4ccc(O)c5c4[C@@]2(CCN3CC2CC2)[C@H]1O5 [Immediate release naltrexone, naltrexone], the “improvement in CD4 count, increase” value ([1]; about 4.5 mg single oral dose with ART, at 3 months, vs control group) was 44%, the BMI ([1]; about 4.5 mg with ART) was “increase” and the opportunistic infections ([1]; about 4.5 mg with ART) was “reduction”. For the same compound, the “Improvement in CD4%” value ([1]; about 4.5 mg with ART, throughout treatment) was “statistically significant”, the opportunistic infection ([2]; long term) was “reduction” and the quality of life ([2]; long term) was “higher”. For the same compound, the Th1/Th2 balance ([2]; with standard of care (ART)) was “shift from Th1 (pro-inflammatory) to Th2 (anti-inflammatory)”, the inflammatory cytokine ([2]; with standard of care (ART)) was “Secreased” and the CAT scans [3] was “no measurable growth of tumors”. For the same compound, the Actometer readings ([4]; children very active at baseline) was “improved in two children”, the “Changes in parent measures (CGI, Conners Impulsivity-Hyperactivity Factor, SE-Restlessness) and Teacher CGI” value ([4]; in vivo) was “achieved statistical significance” and the “subjects improved in two or more settings” value ([4]; in vivo) was “Eight of 13”. The “T-cytotoxic-suppressor (CD4− CD8+)” value [5] was “significant reduction”, the “T-helper-inducers (CD4+ CD8−)” value [5] was “significant increase” and the “subjects with at least a 70-point decline in CDAI scores” value ([6]; 4.5-mg daily oral, placebo 40% (p=0.009)) was “Eighty-eight”. For the same compound, the “remission with a CDEIS score<6” value ([6]; after 12 weeks, placebo 8%) was 33%, the “endoscopic response (5-point decline in CDEIS)” value ([6]; after 12 weeks, placebo 28% (p=0.008)) was 78% and the shingles outbreaks [7] was “not had a single outbreak”. The “quality of life surveys: patients improved” value ([8]; human, in vivo) was 83 patients, the “quality of life surveys: patients stable” value ([8]; human, in vivo) was 92 patients and the “quality of life surveys: patients worse” value ([8]; human, in vivo) was 9. For the same compound, the “MRI scans showed improvement” value ([8]; of 215 patients) was 14, the MRI scans stable ([8]; of 215 patients) was 113 and the “MRI scans slightly worse” value ([8]; of 215 patients, new but inactive lesion(s)) was 28. The quality of life ([8]; over a long period of time) was “improvement”, the toxicity [9] was “no major toxicity” and the “elevated levels of serum alpha interferon (IFN-α)” value ([10]; 1.75 mg nightly, 3-month double-blind period, vs placebo p<0.01) was “significant drop”. The lymphocyte mitogen responses [10, 11] was “declined on placebo and not on Immediate release naltrexone”, the “pathologically elevated levels of acid-labile alpha interferon” value [10, 11] was “declined significantly” and the “incidence of opportunistic infections” value ([10]; 3.0 mg daily at bedtime, 12 weeks, placebo 5 out of 16 (31%)) was 0 of the 22. The “survival of patients who did not show a decline in IFN-a” value ([10]; 2 of the 15) was 13%, the “survival of patients who showed a decline in IFN-a” value ([10]; Nineteen of the 23) was 83% and the “mean IFN-a level after decline” value ([10]; from mean of 144.9 IU. over a 12-month period, 23 patients) was 11.0 IU. For the same compound, the side effects ([10]; human, in vivo) was “No side effects were noted”.
